The structures appear in SMILES notation.

These results are taken from ChEMBL document CHEMBL3244316, “Pharmacology of some metabolites of triazolam, alprazolam, and diazepam prepared by a simple, one-step oxidation of benzodiazepines” (1978).

Type in all cases: functional
Common to all, as to settings: CF-1, ip

Assay [1] concerns Mus musculus. Briefly: Antidepressant activity in ip dosed albino CF-1 mouse assessed as inhibition of ethanol-induced response.
The test system of assay [2] is Mus musculus. As to the kind of experiment: Anticonvulsant activity in ip dosed albino CF-1 mouse assessed as inhibition of nicotine-induced seizures.
Assay [3] concerns Mus musculus. Briefly: Effect on motor activity in ip dosed albino CF-1 mouse by traction test.
In assay [4] the test system is Mus musculus. Briefly: Effect on motor activity in ip dosed albino CF-1 mouse by pedestal test.
Assay [5] concerns Mus musculus. Briefly: Anticonvulsant activity in ip dosed albino CF-1 mouse assessed as inhibition of maximal electric shock-induced seizures.
The test system of assay [6] is Mus musculus. Briefly: Anticonvulsant activity in ip dosed albino CF-1 mouse assessed as inhibition of strychnine-induced seizures.
The subject of assay [7] is Mus musculus. Briefly: Anticonvulsant activity in ip dosed albino CF-1 mouse assessed as inhibition of pentylenetetrazole-induced seizures.
Assay [8] deals with Mus musculus. Briefly: Anxiolytic activity in ip dosed albino CF-1 mouse under hypoxic stress.
In assay [9] the test system is Mus musculus. Briefly: Anticonvulsant activity in ip dosed albino CF-1 mouse assessed as inhibition of thiosemicarbazide-induced seizures.
The subject of assay [10] is Mus musculus. As to the kind of experiment: Effect on motor activity in ip dosed albino CF-1 mouse by dish test.
The test system of assay [11] is Mus musculus. Briefly: Effect on motor activity in ip dosed albino CF-1 mouse by chimney test.

In the case of `OCc1nnc2n1-c1ccc(Cl)cc1C(c1ccccc1Cl)=NC2O` (stereo not given), the median effective dose (ED50) (in general, the dose at which the effect has come halfway, by size or by number of responders) in assay [1] was 50 mg/kg; in assay [2], 1 mg/kg; in [3], > 100 mg/kg; in assay [4], 44 mg/kg; in assay [5], > 100 mg/kg; in assay [6], > 80 mg/kg. The ED50 in assay [7] stood at 32 mg/kg; in assay [8], 30 mg/kg; in assay [9], 0.39 mg/kg; in assay [10], 5 mg/kg; in [11] it was 2.2 mg/kg.

As for `OC1N=C(c2ccccc2)c2cc(Cl)ccc2-n2ccnc21` (stereo not given), the ED50 in assay [1] is 7.9 mg/kg; in assay [2], 4 mg/kg; in assay [3] it was 32 mg/kg; in [4], 7 mg/kg; in assay [5], 63 mg/kg; in [6], > 80 mg/kg. The ED50 in [7] was 6.3 mg/kg; in assay [8], 60 mg/kg; in [9] it was 6.3 mg/kg; in assay [10] it was 6 mg/kg; in assay [11] it was > 25 mg/kg.

For `Cc1nnc2n1-c1ccc(Cl)cc1C(c1ccccc1Cl)=NC2` [TRIAZOLAM], the ED50 in assay [1] was 0.7 mg/kg; in assay [2], 0.004 mg/kg; in [3], 0.3 mg/kg; in assay [4] it was 0.03 mg/kg; in assay [5] it was 30 mg/kg; in assay [6], 0.22 mg/kg. The ED50 in [7] was determined as 0.009 mg/kg; in assay [8] it was 0.035 mg/kg; in assay [9] it was 0.02 mg/kg; in assay [10] it was 0.03 mg/kg; in [11], 0.08 mg/kg.

For `CN1C(=O)CN=C(c2ccccc2)c2cc(Cl)ccc21` [DIAZEPAM], the 50% effective dose (ED50) in [1] was determined as 1 mg/kg; in assay [2], 0.1 mg/kg; in assay [3] it was 4 mg/kg; in assay [4], 0.7 mg/kg; in [5] it was 25 mg/kg; in [6] it was 4 mg/kg. For the same molecule, the ED50 in assay [7] came to 0.8 mg/kg; in assay [8] it was 0.2 mg/kg; in assay [9] it was 0.4 mg/kg; in assay [10], 0.25 mg/kg; in assay [11], 1.2 mg/kg.

For `O=C1Nc2ccc(Cl)cc2C(c2ccccc2)=NC1O` (stereo not given) [OXAZEPAM], the ED50 in assay [1] was 1.8 mg/kg; in assay [2], 0.14 mg/kg; in assay [3] it was 13 mg/kg; in assay [4], 2 mg/kg; in assay [5], 79 mg/kg; in [6] it was 9 mg/kg. Moreover, the ED50 stood at 0.7 mg/kg in assay [7]; 12.5 mg/kg in assay [8]; 0.9 mg/kg in [9]; 1.1 mg/kg in [10]; 1.8 mg/kg in assay [11].

On to `CN(C)Cc1nnc2n1-c1ccc(Cl)cc1C(c1ccccc1)=NC2` [ADINAZOLAM], for which the ED50 was 2.2 mg/kg in [1]; 0.2 mg/kg in assay [2]; 5.6 mg/kg in assay [3]; 2.8 mg/kg in assay [4]; 100 mg/kg in assay [5]; > 200 mg/kg in assay [6]. Further, the ED50 turned out to be 0.8 mg/kg in [7]; 1.9 mg/kg in assay [8]; 0.15 mg/kg in [9]; 1.5 mg/kg in [10]; 3.6 mg/kg in assay [11].

Take `Cc1nnc2n1-c1ccc(Cl)cc1C(c1ccccc1)=NC2` [ALPRAZOLAM]: the ED50 stood at 0.18 mg/kg in assay [1]; 0.02 mg/kg in assay [2]; 0.6 mg/kg in assay [3]; 0.23 mg/kg in [4]; 25 mg/kg in assay [5]; 0.3 mg/kg in assay [6]. Further, the ED50 came out at 0.13 mg/kg in assay [7]; 0.02 mg/kg in [8]; 0.16 mg/kg in [9]; 0.15 mg/kg in [10]; 0.09 mg/kg in [11].

`Clc1ccc2c(c1)C(c1ccccc1)=NCc1nccn1-2`: the ED50 in assay [1] turned out to be 3.6 mg/kg; in assay [2] it was 1 mg/kg; in [3] it was 16 mg/kg; in assay [4], 4 mg/kg; in assay [5] it was 32 mg/kg; in assay [6] it was 7 mg/kg. Further, the ED50 in [7] came to 2.2 mg/kg; in assay [8], 25 mg/kg; in assay [9], 1.6 mg/kg; in assay [10], 5 mg/kg; in assay [11] it was 3.6 mg/kg.

In the case of `CN1C(=O)C(O)N=C(c2ccccc2)c2cc(Cl)ccc21` (stereo not given) [TEMAZEPAM], the ED50 turned out to be 0.32 mg/kg in assay [1]; 0.063 mg/kg in assay [2]; 4 mg/kg in [3]; 0.7 mg/kg in assay [4]; 10 mg/kg in assay [5]; 2.8 mg/kg in assay [6]. Also, the ED50 in assay [7] is 0.3 mg/kg; in assay [8], 0.2 mg/kg; in assay [9], 0.3 mg/kg; in assay [10], 0.36 mg/kg; in assay [11], 0.45 mg/kg.

With `OCc1nnc2n1-c1ccc(Cl)cc1C(c1ccccc1Cl)=NC2`, the ED50 in assay [1] was determined as 0.4 mg/kg; in [2], 0.01 mg/kg; in assay [3] it was 0.6 mg/kg; in [4] it was 0.17 mg/kg; in assay [5], 89 mg/kg; in assay [6], 0.5 mg/kg. For the same molecule, the 50% effective dose (ED50) in [7] came out at 0.018 mg/kg; in assay [8], 0.5 mg/kg; in [9], 0.014 mg/kg; in [10], 0.03 mg/kg; in assay [11], 0.14 mg/kg.

With `CN(C)Cc1nnc2n1-c1ccc(Cl)cc1C(c1ccccc1)=NC2O` (stereo not given), the ED50 was > 20 mg/kg in assay [1]; 2.2 mg/kg in assay [2]; 22 mg/kg in assay [3]; 22 mg/kg in assay [4]; > 100 mg/kg in assay [5]; > 40 mg/kg in [6]. The ED50 came out at 4 mg/kg in assay [7]; 25 mg/kg in assay [8]; 0.88 mg/kg in [9]; 5 mg/kg in assay [10]; 4 mg/kg in assay [11].

Take `OCc1nnc2n1-c1ccc(Cl)cc1C(c1ccccc1)=NC2`: the ED50 was found to be 1.8 mg/kg in assay [1]; 0.08 mg/kg in [2]; 8 mg/kg in assay [3]; 50 mg/kg in assay [5]; 9.9 mg/kg in [6]; 0.22 mg/kg in assay [7]. For the same molecule, the ED50 came out at 0.02 mg/kg in assay [8], 0.08 mg/kg in assay [9], 2 mg/kg in assay [10] and 0.63 mg/kg in [11].

As to `Cc1nnc2n1-c1ccc(Cl)cc1C(c1ccccc1Cl)=NC2O` (stereo not given), the ED50 is > 80 mg/kg in assay [1]; 10 mg/kg in assay [2]; > 100 mg/kg in [3]; 11 mg/kg in [4]; > 100 mg/kg in [5]; > 80 mg/kg in [6]. The ED50 in assay [7] was 14 mg/kg; in assay [8] it was > 100 mg/kg; in assay [9], 11.2 mg/kg; in assay [10] it was 8 mg/kg; in assay [11] it was 45 mg/kg.

With `O=C1CN=C(c2ccccc2)c2cc(Cl)ccc2N1` [NORDAZEPAM], the ED50 in assay [1] was 1.8 mg/kg; in [2], 0.3 mg/kg; in assay [3] it was 7 mg/kg; in [4] it was 0.9 mg/kg; in assay [5], > 100 mg/kg; in assay [6] it was 20 mg/kg. The ED50 in assay [7] is 1.6 mg/kg; in [8] it was 0.7 mg/kg; in assay [9], 1.8 mg/kg; in assay [10], 0.5 mg/kg; in [11], 0.7 mg/kg.

As for `OCc1nnc2n1-c1ccc(Cl)cc1C(c1ccccc1)=NC2O` (stereo not given), the ED50 in [1] is > 80 mg/kg; in assay [2] it was 6.2 mg/kg; in [3], > 100 mg/kg; in [4], > 80 mg/kg; in assay [5], > 100 mg/kg; in [6], > 80 mg/kg. Further, the ED50 is 40 mg/kg in [7]; > 50 mg/kg in [8]; 8.9 mg/kg in [9]; 56 mg/kg in assay [10]; > 80 mg/kg in assay [11].

Regarding `Cc1nnc2n1-c1ccc(Cl)cc1C(c1ccccc1)=NC2O` (stereo not given) [4-HYDROXY-ALPRAZOLAM], the ED50 in assay [1] is 10 mg/kg; in [2], 4 mg/kg; in [3] it was 23 mg/kg; in assay [4] it was 20 mg/kg; in [5] it was > 50 mg/kg; in assay [6], 25 mg/kg. Moreover, the ED50 in assay [7] was 0.7 mg/kg; in assay [8] it was 6.2 mg/kg; in assay [9] it was 5 mg/kg; in assay [10], 6.3 mg/kg; in assay [11], 6.3 mg/kg.
